From patent publication US7276576B1, “Mammalian ICYP (iodocyanopindolol) receptor and its applications” (Dainippon Sumitomo Pharma Co., Ltd., priority 1996, dated 2007)
Several values for one entry are separate records, joined by “and”; a condition that tells them apart may be missing. Equal values may be shown once. Where a name gives a salt, the structure may show the parent alone. Read-outs that look alike come from different tables or passages of the source.

Columns and labels:
[1] = system: rat colon smooth muscle segment; test: Relaxation of KCl-induced tonus in rat colon segment (organ bath); conditions: for Slope of Schild plot for cyanopindolol, rat colon / pA2 for cyanopindolol, rat colon / IA, rat colon relaxation / EC50: 10 μM phentolamine and 1 μM propranolol; for IA, rat colon relaxation: relative to isoproterenol; for IA, rat colon relaxation / EC50: mean ± SEM; for EC50: Rattus norvegicus, relaxation of KCl (100 mM)-induced tonus, read-out: pD2, rat colon relaxation (converted)
Method: Rat colon segment (2 cm) was suspended in organ bath containing 10 ml modified-Tyrode solution (Sugasawa T. et al. Eur. J. Pharmacol., 1992, 216, 207-215). The Tyrode solution contained 0.5 μM atropine, 0.5 μM desmethylimipramine, 30 μM hydrocortisone, 30 μM ascorbic acid, 10 μM phentolamine and 1 μM propranolol throughout study, in order to inhibit spontaneous contraction, neuronal and extra-neuronal uptake of norepinephrine, oxidation of catecholamines, possible α, β1- and β2-AR effects, respectively.
The relaxant action of agonists was determined by measuring relaxation of KCl (100 mM)-induced tonus evoked by cumulative addition of the agonists as described previously (Sugasawa T. et al. cited above). In the case of testing the effect of cyanopindolol, it was added 5-10 min before the addition of agonist.
(§1) Agonist concentration-ratios (CR) were determined from the EC50 values of the concentration-response curves of agonists with or without cyanopindolol, according to the method of Arunlakshana et al., 1959.
(§2) The EC50 values were calculated using the computer program, InPlot™.

[2] = system: atypical β-AR in rat colon; conditions: under blockade of β1- and β2-AR effects; McLaughlin, MacDonald et al.; cited from earlier work
rat white adipocytes = test: Lipolysis in rat white adipocytes; format: cell-based; conditions: for Slope of Schild plot for cyanopindolol, rat white adipocytes / pA2 for cyanopindolol, rat white adipocytes / IA, rat white adipocyte lipolysis / EC50: 10 μM phentolamine and 1 μM propranolol; for IA, rat white adipocyte lipolysis: relative to isoproterenol; for IA, rat white adipocyte lipolysis / EC50: mean ± SEM; for EC50: Rattus norvegicus, Adipocyte, read-out: pD2, rat white adipocyte lipolysis (converted)
Method: White adipocytes were isolated from epididymal fat pads of male Wistar rats (190-230 g) and lipolysis was determined according to the previous report (Sugasawa T. et al. cited above). The cells were preincubated for 5 min at 37° C. in the presence of 30 μM ascorbic acid, 10 μM phentolamine and 1 μM propranolol.
Agonists were then applied and incubated for 90 min. In the case of testing the effect of cyanopindolol, it was added 5 min before the addition of agonist.
as §1, §2

[3] = target: T1, [125I]-ICYP specific binding site (SMBP, SM-11044 binding protein) in rat colon smooth muscle membranes (Rattus norvegicus, UniProt A0A8I6A822); test: [125I]-ICYP saturation and competition binding to rat colon membranes (Example 2)
T1 construct: Membranes from colon smooth muscles were prepared as essentially described by Ek et al., 1986; from tissue
T1 sequence (A0A8I6A822 27-587): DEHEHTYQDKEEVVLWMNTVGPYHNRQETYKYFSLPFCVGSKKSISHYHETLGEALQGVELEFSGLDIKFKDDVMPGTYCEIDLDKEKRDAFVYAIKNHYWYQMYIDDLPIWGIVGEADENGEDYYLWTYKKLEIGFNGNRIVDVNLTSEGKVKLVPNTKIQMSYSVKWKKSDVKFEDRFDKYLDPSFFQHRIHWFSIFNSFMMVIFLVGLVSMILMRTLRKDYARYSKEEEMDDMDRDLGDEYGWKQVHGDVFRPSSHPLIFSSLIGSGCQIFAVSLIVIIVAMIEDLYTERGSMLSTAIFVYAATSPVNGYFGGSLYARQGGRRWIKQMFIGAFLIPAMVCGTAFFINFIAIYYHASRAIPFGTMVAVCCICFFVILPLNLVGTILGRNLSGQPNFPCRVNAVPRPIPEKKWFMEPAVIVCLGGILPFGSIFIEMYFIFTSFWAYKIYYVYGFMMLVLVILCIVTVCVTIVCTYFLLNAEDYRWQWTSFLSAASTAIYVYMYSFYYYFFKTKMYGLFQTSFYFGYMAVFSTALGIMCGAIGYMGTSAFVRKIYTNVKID
Method: Incubations were carried out at 37° C. for 30 min in a shaking water-bath incubator and terminated by addition of 4 ml of ice-cold Tris-saline followed by rapid filtration under vacuum on Whatman GF/B filter presoaked in Tris-saline containing 0.1% polyethyleneimine (pH 7.4). The filters were washed three times with 4 ml of ice-cold Tris-saline, transferred to plastic tubes and counted in a γ-counter.
Hill coefficient was calculated by linear regression using saturation experiment data. Pseudo-Hill coefficient and IC50 were determined by the computer program, InPlot™ (GraphPad Software, CA, USA).

[4] = system: [125I]-ICYP specific binding site in rat skeletal muscle membranes; test: [125I]-ICYP binding to rat skeletal muscle membranes; conditions: 1 nM [125I]-ICYP; 10 μM 5-HT, 10 μM phentolamine and 20 μM propranolol
Method: Membranes from the colon smooth muscle and from skeletal muscle were prepared from male Wistar rats (300-360 g) as essentially mentioned in example 1.
Saturation binding studies were performed in a final volume of 200 μl of Tris-saline containing 50 μg membrane proteins and different concentrations ([…]) of [^125I]-ICYP, supplemented with 10 μM serotonine (5-HT), 10 μM phentolamine, 20 μM propranolol and 1.1 mM ascorbic acid (pH 7.4), to block possible 5-HT receptors, ARs and oxidation of catecholamines, respectively. The [^125I]-ICYP was used after removing methyl alcohol by compressed air to avoid the influence of the solvent. […] The filters were washed three times with 4 ml of ice-cold Tris-saline, transferred to plastic tubes and counted in a γ-counter.
Competition assays were performed against 1 nM [^125I]-ICYP. Non-specific binding was determined in the presence of 100 μM SM-11044. The inhibition constant, Ki, of a ligand was calculated using the equation described by Cheng and Prusoff (Biochem. Pharmacol., 1973, 22, 3099-3108). Hill coefficient was calculated by linear regression using saturation experiment data. Pseudo-Hill coefficient and IC50 were determined by the computer program, InPlot™ (GraphPad Software, CA, USA).

guinea pig eosinophil = test: Leukotriene B4 induced guinea pig eosinophil chemotaxis; format: cell-based
guinea pig ileum = test: Guinea pig ileum relaxation of KCl-induced tonus; conditions: compared with rat white adipocyte lipolysis
[5] = target: rat SM-11044 binding protein (Ro-SMBP) of rat colon smooth muscle membranes (rat) (UniProt D3ZUD8); test: WGA-sepharose chromatography, elution with N-acetyl-D-glucosamine
[6] = agonist (−)-isoproterenol, listed as Cyanopindolol
[7] = agonist (−)-isoproterenol, listed as cyanopindolol
[8] = agonist SM-11044, listed as Cyanopindolol
[9] = agonist SM-11044, listed as cyanopindolol
[10] = up to the concentration of 10 μM
[11] = 1 nM [125I]-ICYP, 10 μM 5-HT, 10 μM phentolamine and 20 μM propranolol, read-out: Ki on [125I]-ICYP specific binding to rat colon membranes

In the case of `CC(C)(C)NCC(O)COc1cccc2[nH]c(C#N)cc12` (racemic) [(±)-cyanopindolol, cyanopindolol], the “Slope of Schild plot for cyanopindolol, rat colon” value (from here on “Slope of Schild plot … rat colon”) [1, 6] is reported as 1.03, the “pA2 for cyanopindolol, rat colon” value [1, 6] is reported as 7.65 and the “Slope of Schild plot … rat colon” value [1, 7] is reported as 1.03 ± 0.08. For the same molecule, the “pA2 for cyanopindolol, rat colon” value [1, 7] was 7.65 ± 0.48, the “Slope of Schild plot … rat colon” value [1, 8] was 0.78 and the “pA2 for cyanopindolol, rat colon” value [1, 8] was 8.31. The “Slope of Schild plot … rat colon” value [1, 9] was 0.78 and 0.78 ± 0.11, the “pA2 for cyanopindolol, rat colon” value [1, 9] was 8.31 and 8.31 ± 0.88 and the “Effect of the compound itself on the degree of tonus induced by KCl” value [1, 10] was “had no effect”. The “pA2 against propranolol-resistant responses of isoproterenol in rat colon” value [2] was 7.12, the “Slope of Schild plot for cyanopindolol, rat white adipocytes” value (“Slope … rat white adipocytes” for short) (rat white adipocytes; [6]) was 1.08 and the “pA2 for cyanopindolol, rat white adipocytes” value (“pA2 … rat white adipocytes” below) (rat white adipocytes; [6]) was 7.44. For the same molecule, the “Slope … rat white adipocytes” value (rat white adipocytes; [7]) was 1.08 ± 0.10, the “pA2 … rat white adipocytes” value (rat white adipocytes; [7]) was 7.44 ± 0.61 and the “Slope … rat white adipocytes” value (rat white adipocytes; [8]) was 0.96. The “pA2 … rat white adipocytes” value (rat white adipocytes; [8]) was 7.32, the “Slope … rat white adipocytes” value (rat white adipocytes; [9]) was 0.96 ± 0.21 and the “pA2 … rat white adipocytes” value (rat white adipocytes; [9]) was 7.32 ± 1.51. The “Stimulation of lipolysis by the compound itself” value (rat white adipocytes; [10]) was “did not stimulate lipolysis”, the Ki [3] was 0.11 µM and the Pseudo-Hill coefficient ([3]; 1 nM [125I]-ICYP, 10 μM 5-HT, 10 μM phentolamine and 20 μM propranolol) was 1.01 ± 0.14.

In the case of `CC(C)NC[C@H](O)c1ccc(O)c(O)c1` (single isomer, unassigned) [(−)-isoproterenol, isoproterenol], the “IA, rat colon relaxation” value [1] is reported as 1.00 ± 0.063, the EC50 [1] is reported as 0.229 µM and the “Displacement of [125I]-ICYP specific binding to skeletal muscle membranes” value [4] is reported as “not displaced by isoproterenol up to concentrations of 10^−4 M”. The “Inhibition of leukotriene B4 induced guinea pig eosinophil chemotaxis” value (guinea pig eosinophil) was “no such effect”, the “IA, rat white adipocyte lipolysis” value (rat white adipocytes) was 1.00 ± 0.037 and the EC50 (rat white adipocytes) was 1.38 µM. For the same molecule, the Ki [3, 11] was > 1000 µM and the “Displacement of [125I]-ICYP specific binding” value ([3]; up to the concentration of 1 mM) was “not displaced”.

With `O=C([C@@H](NCCCc1ccc(F)cc1)[C@H](O)c1ccc(O)c(O)c1)N1CCCC1` [SM-11044, (L)-threo-3-(3,4-dihydroxyphenyl)-N-[3-(4-fluorophenyl)propyl]serine pyrrolidine amide hydrobromide] the “IA, rat colon relaxation” value [1] was 1.48 ± 0.166, the EC50 [1] was 0.0513 µM and the “Relaxation of KCl-induced tonus in guinea pig ileum (in words)” value (guinea pig ileum) was “more efficiently than rat white adipocyte lipolysis”. The “Displacement of [125I]-ICYP specific binding to skeletal muscle membranes” value [4] was “displaced the binding in a concentration-dependent manner”, the “Inhibition of leukotriene B4 induced guinea pig eosinophil chemotaxis” value (guinea pig eosinophil) was “inhibiting” and the “IA, rat white adipocyte lipolysis” value (rat white adipocytes) was 0.86 ± 0.054. For the same molecule, the EC50 (rat white adipocytes) was 1.1 µM, the Pseudo-Hill coefficient ([3]; 1 nM [125I]-ICYP, 10 μM 5-HT, 10 μM phentolamine and 20 μM propranolol, hydrobromide) was 1.00 ± 0.12 and the Ki [3, 11] was 1.8 ± 0.3 µM.

B1: Wheat Germ Agglutinine (WGA)-sepharose 6 MB (protein, UniProt P10968 27-197, looked up)
chain: QRCGEQGSNMECPNNLCCSQYGYCGMGGDYCGKGCQNGACWTSKRCGSQAGGATCTNNQCCSQYGYCGFGAEYCGAGCQGGPCRADIKCGSQAGGKLCPNNLCCSQWGFCGLGSEFCGGGCQSGACSTDKPCGKDAGGRVCTNNYCCSKWGSCGIGPGYCGAGCQSGGCDG
B1 gave a percent of the radiolabeled material eluted by the specific sugar [5] of 2.3%.
